# Source: publication PMC5766581, “NF-κB inducing kinase is a therapeutic target for systemic lupus erythematosus” (Nature Communications, 2018)
# Columns and labels:
# [1] = system: nuclear RelA (canonical NF-κB signaling); experiment: High content nuclear RelA imaging, TNF-stimulated HeLa cells; type: cell-based, human
# Procedure: The HeLa cell line was used to define the cellular selectivity of NIK inhibitors toward inhibition of classical vs. non-classical NF-κB signaling using high content cellular imaging assays. For the nuclear translocation assay p52 (non-canonical NF-κB signaling), HeLa cells were treated with different concentrations of compounds previously diluted in DMSO (final [DMSO] = 0.2% in all wells) in DMEM medium (10% FBS, 2 mM Glutamine) and then stimulated with 300 ng/mL of an anti-lymphotoxin beta receptor antibody for 4.5 h. In the REL-A nuclear translocation assay, HeLa cells were incubated with compounds for 4 h 50 min before stimulating them with 2 ng/mL TNF (R&D Systems) for 10 min. Cells were fixed with 4% paraformaldehyde, permeabilized by adding 0.1% Triton X-100 in phosphate buffered saline, and then are incubated with either 2 μg/mL anti-p52 antibody or 400 ng/mL anti-REL-A (p65) antibody. Finally, the cells are incubated with an Alexa488-labeled secondary antibody (Invitrogen) and DRAQ5 DNA stain (Biostatus). Imaging was carried out using an Opera reader (Perkin Elmer) and data were analyzed with Acapella software (Perkin Elmer). The p52 or REL-A translocation into the nucleus is quantified by the ratio of the nuclear to cytoplasmic signal intensity.
# IGF1R = target: T1, IGF1R (Homo sapiens, UniProt P08069); experiment: SelectScreen kinase panel; type: biochemical
# T1 construct: purchased Invitrogen / ThermoFisher SelectScreen
# Method in brief: (§1)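 SelectScreen selectivity panel, vendor protocols per kinase: Z′-LYTE, Adapta, or LanthaScreen. Value = average % inhibition.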
# MST2 = target: T2, MST2 (Homo sapiens, UniProt Q13188); experiment: SelectScreen kinase panel; type: biochemical
# T2 construct: purchased Invitrogen / ThermoFisher SelectScreen
# Method in brief: as §1
# CAMKK2 = target: T3, CAMKK2 (Homo sapiens, UniProt Q96RR4); experiment: SelectScreen kinase panel; type: binding
# T3 construct: purchased Invitrogen / ThermoFisher SelectScreen
# Procedure: (§2) The ability of NIK to catalyze the hydrolysis of adenosine-5′-triphosphate (ATP) was monitored using the Transcreener ADP (adenosine-5′-diphosphate) assay (Bell Brook Labs, Fitchburg, WI). Purified human NIK kinase domain (a.a. 340–694) (0.5 nM) or mouse NIK kinase domain (a.a. 329–675) (1 nM) derived from a baculovirus-infected insect cell expression system was incubated with test compounds for 0.5–2 h in 50 mM HEPES buffer (pH 7.2) containing 10 mM MgCl2, 2 mM dithiothreitol, 10 μM ATP, 0.01% Triton X-100, 0.1% gamma-globulins from bovine blood, 1% dimethylsulfoxide (DMSO), 7 μg/mL ADP antibody and 5 nM ADP-MR121 633 tracer. Reactions were quenched by the addition of 20 mM EDTA and 0.01% Brij 35. The tracer bound to the antibody was displaced by the ADP generated during the NIK reaction, which caused a decrease in fluorescence polarization that was measured by laser excitation at 633 nm with a Fluorescence Correlation Spectroscopy Plus reader (Evotec AG). Equilibrium dissociation constant (Ki) values for NIK inhibitors are calculated from plots of activity vs. inhibitor concentration using Morrison’s quadratic equation that accounts for the potential of tight binding, and by also applying the conversion factor that accounted for competitive inhibition and the concentration of substrate used in the assay relative to its Michaelis constant (Km). The Ki values with hPKD1 (PKCμ) were determined using the same assay conditions as for NIK. Ki measurements for hKHS1 and hLRRK2, as well as broad kinase selectivity profiling for SMI1, were carried out by Invitrogen using their SelectScreen kinase assay panel (ThermoFisher Scientific, Madison, WI). The vendor offered two types of kinase activity assays, a peptide phosphorylation assay (Z′-LYTE) and an ADP quantitation assay (Adapta), as well as one type of kinase ATP site competitive binding assay (LanthaScreen). See vendor web site for technology and protocol details for each specific kinase assay.
# (§3) The average % Inhibition of each kinase is reported (Supplementary Table 1).
# DMPK = target: T4, DMPK (Homo sapiens, UniProt Q09013); experiment: SelectScreen kinase panel; type: binding
# T4 construct: purchased Invitrogen / ThermoFisher SelectScreen
# T4 sequence (Q09013 whole entry): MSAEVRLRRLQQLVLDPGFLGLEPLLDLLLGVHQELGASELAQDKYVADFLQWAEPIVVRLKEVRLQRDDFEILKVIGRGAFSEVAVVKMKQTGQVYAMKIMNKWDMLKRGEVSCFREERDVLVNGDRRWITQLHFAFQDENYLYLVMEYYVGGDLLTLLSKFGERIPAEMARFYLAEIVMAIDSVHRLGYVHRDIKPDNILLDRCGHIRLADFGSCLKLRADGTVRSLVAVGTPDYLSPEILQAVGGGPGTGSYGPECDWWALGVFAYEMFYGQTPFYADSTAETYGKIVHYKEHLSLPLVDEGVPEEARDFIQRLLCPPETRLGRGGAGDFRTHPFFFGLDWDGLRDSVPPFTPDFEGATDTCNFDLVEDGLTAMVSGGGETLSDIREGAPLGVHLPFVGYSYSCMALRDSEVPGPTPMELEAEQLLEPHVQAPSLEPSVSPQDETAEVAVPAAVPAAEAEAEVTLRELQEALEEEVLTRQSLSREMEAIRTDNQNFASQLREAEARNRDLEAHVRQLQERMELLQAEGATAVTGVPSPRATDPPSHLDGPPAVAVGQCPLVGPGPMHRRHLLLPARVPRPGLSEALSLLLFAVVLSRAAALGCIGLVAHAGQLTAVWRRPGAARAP
# Procedure: as §2, §3
# WNK2 = target: T5, WNK2 (Homo sapiens, UniProt Q9Y3S1); experiment: SelectScreen kinase panel; type: binding
# T5 construct: purchased Invitrogen / ThermoFisher SelectScreen
# Procedure: as §2, §3
# MKK6 = target: T6, MKK6 (Homo sapiens, UniProt P52564); experiment: SelectScreen kinase panel; type: binding
# T6 construct: purchased Invitrogen / ThermoFisher SelectScreen
# Procedure: as §2, §3
# DDR1 = target: T7, DDR1 (Homo sapiens, UniProt Q08345); experiment: SelectScreen kinase panel; type: binding
# T7 construct: purchased Invitrogen / ThermoFisher SelectScreen
# Procedure: as §2, §3
# AVCR2B = target: T8, AVCR2B (Homo sapiens, UniProt Q13705); experiment: SelectScreen kinase panel; type: binding
# T8 construct: purchased Invitrogen / ThermoFisher SelectScreen
# Procedure: as §2, §3
# NLK = target: T9, NLK (Homo sapiens, UniProt Q9UBE8); experiment: SelectScreen kinase panel; type: binding
# T9 construct: purchased Invitrogen / ThermoFisher SelectScreen
# Procedure: as §2, §3
# MYLK = target: T10, MYLK (Homo sapiens, UniProt Q15746); experiment: SelectScreen kinase panel; type: binding
# T10 construct: purchased Invitrogen / ThermoFisher SelectScreen
# Procedure: as §2, §3
# B -Raf = target: T11, B -Raf (Homo sapiens, UniProt P15056); experiment: SelectScreen kinase panel; type: binding
# T11 construct: purchased Invitrogen / ThermoFisher SelectScreen
# T11 sequence (P15056 whole entry): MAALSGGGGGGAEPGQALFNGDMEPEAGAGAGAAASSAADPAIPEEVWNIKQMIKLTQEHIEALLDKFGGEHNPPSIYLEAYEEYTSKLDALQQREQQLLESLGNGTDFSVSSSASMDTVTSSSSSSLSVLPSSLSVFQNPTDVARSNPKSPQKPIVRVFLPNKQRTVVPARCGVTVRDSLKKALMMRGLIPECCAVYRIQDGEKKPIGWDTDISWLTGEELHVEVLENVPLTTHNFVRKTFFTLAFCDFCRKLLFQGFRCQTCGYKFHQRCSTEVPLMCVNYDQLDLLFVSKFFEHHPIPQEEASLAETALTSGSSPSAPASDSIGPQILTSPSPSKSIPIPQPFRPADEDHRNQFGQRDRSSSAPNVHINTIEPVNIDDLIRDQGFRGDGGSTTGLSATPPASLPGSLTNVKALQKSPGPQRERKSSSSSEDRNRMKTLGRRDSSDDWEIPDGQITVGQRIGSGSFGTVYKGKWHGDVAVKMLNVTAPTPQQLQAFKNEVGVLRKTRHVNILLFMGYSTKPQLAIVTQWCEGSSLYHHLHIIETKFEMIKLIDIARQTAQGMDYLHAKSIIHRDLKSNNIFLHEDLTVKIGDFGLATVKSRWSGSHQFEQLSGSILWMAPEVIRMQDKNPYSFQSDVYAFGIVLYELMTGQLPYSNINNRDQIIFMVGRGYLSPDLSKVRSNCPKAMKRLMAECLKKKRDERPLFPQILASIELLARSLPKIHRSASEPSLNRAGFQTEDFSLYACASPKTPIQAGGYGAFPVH
# Procedure: as §2, §3
# CAMKK1 = target: T12, CAMKK1 (Homo sapiens, UniProt Q8N5S9); experiment: SelectScreen kinase panel; type: binding
# T12 construct: purchased Invitrogen / ThermoFisher SelectScreen
# Procedure: as §2, §3
# STK16 = target: T13, STK16 (Homo sapiens, UniProt O75716); experiment: SelectScreen kinase panel; type: binding
# T13 construct: purchased Invitrogen / ThermoFisher SelectScreen
# Procedure: as §2, §3
# DRAK1 = target: T14, DRAK1 (Homo sapiens, UniProt Q9UEE5); experiment: SelectScreen kinase panel; type: binding
# T14 construct: purchased Invitrogen / ThermoFisher SelectScreen
# Procedure: as §2, §3
# MYLK3 = target: T15, MYLK3 (Homo sapiens, UniProt Q32MK0); experiment: SelectScreen kinase panel; type: binding
# T15 construct: purchased Invitrogen / ThermoFisher SelectScreen
# Procedure: as §2, §3
# WEE1 = target: T16, WEE1 (Homo sapiens, UniProt P30291); experiment: SelectScreen kinase panel; type: binding
# T16 construct: purchased Invitrogen / ThermoFisher SelectScreen
# Procedure: as §2, §3
# ZAK = target: T17, ZAK (Homo sapiens, UniProt Q9NYL2); experiment: SelectScreen kinase panel; type: binding
# T17 construct: purchased Invitrogen / ThermoFisher SelectScreen
# T17 sequence (Q9NYL2 whole entry): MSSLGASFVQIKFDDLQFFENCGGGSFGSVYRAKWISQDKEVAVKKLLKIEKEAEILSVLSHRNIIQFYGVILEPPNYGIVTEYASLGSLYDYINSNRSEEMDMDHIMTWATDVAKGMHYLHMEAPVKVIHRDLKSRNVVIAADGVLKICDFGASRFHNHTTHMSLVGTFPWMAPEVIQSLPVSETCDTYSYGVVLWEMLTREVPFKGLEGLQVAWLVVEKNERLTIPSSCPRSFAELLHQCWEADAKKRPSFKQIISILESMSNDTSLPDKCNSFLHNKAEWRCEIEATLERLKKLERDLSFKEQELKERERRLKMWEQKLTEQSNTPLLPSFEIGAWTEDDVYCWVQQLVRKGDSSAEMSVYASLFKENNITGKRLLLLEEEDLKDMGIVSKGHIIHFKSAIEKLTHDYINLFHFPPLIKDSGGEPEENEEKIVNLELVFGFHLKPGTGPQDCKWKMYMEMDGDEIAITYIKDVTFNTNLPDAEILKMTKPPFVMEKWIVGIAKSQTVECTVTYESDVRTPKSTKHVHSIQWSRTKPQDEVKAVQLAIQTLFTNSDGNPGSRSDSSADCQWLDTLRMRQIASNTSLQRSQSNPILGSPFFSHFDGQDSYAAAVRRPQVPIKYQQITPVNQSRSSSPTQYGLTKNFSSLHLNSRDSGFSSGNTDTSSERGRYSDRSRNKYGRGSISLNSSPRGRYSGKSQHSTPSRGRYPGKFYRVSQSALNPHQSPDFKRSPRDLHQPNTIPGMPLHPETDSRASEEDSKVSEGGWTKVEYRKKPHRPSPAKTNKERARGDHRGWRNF
# Procedure: as §2, §3
# SLK = target: T18, SLK (Homo sapiens, UniProt Q9H2G2); experiment: SelectScreen kinase panel; type: binding
# T18 construct: purchased Invitrogen / ThermoFisher SelectScreen
# T18 sequence (Q9H2G2 whole entry): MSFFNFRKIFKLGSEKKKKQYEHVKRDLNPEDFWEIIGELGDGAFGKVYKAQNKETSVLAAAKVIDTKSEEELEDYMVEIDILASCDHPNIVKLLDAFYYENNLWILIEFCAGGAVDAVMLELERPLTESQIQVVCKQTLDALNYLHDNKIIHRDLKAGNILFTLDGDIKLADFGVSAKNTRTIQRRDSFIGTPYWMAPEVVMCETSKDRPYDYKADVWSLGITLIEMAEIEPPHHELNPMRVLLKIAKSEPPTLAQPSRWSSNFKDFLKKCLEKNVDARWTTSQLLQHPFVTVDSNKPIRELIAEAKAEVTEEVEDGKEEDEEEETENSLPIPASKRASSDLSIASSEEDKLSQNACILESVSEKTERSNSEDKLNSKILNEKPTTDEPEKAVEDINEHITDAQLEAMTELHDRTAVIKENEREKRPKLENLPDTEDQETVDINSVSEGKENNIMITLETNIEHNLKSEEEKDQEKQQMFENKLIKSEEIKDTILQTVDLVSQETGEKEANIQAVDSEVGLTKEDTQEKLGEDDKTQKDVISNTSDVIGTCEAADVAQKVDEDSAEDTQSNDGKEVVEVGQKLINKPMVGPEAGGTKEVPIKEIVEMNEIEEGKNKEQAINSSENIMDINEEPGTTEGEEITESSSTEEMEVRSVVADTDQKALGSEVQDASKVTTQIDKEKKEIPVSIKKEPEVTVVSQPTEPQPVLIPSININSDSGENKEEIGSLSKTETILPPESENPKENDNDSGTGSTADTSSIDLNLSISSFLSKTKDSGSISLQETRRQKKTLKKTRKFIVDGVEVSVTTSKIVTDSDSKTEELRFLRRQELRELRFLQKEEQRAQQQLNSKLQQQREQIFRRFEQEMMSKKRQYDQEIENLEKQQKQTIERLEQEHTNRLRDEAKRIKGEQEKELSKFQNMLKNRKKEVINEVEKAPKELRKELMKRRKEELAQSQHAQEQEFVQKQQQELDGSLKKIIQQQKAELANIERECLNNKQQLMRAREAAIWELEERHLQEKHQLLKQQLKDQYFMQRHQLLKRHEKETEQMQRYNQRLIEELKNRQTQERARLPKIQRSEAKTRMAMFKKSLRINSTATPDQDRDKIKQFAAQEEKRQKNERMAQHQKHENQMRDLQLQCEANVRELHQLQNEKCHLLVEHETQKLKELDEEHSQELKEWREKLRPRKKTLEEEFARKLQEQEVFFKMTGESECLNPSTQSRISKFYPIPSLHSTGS
# Procedure: as §2, §3
# MEK3 = target: T19, MEK3 (Homo sapiens, UniProt P46734); experiment: SelectScreen kinase panel; type: binding
# T19 construct: purchased Invitrogen / ThermoFisher SelectScreen
# T19 sequence (P46734 whole entry): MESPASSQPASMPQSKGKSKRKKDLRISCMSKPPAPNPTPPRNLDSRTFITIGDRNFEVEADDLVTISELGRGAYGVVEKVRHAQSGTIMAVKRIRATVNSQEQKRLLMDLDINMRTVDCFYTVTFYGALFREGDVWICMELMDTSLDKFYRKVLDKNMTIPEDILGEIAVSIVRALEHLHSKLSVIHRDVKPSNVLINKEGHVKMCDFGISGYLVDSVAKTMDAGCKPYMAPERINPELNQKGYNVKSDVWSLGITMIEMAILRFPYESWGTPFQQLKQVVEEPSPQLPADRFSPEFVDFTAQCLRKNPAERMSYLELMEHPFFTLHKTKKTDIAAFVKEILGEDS
# Procedure: as §2, §3
# TNK2 = target: T20, TNK2 (Homo sapiens, UniProt Q07912); experiment: SelectScreen kinase panel; type: binding
# T20 construct: purchased Invitrogen / ThermoFisher SelectScreen
# Procedure: as §2, §3
# JNK3 = target: T21, JNK3 (Homo sapiens, UniProt P53779); experiment: SelectScreen kinase panel; type: binding
# T21 construct: purchased Invitrogen / ThermoFisher SelectScreen
# Procedure: as §2, §3
# RIPK2 = target: T22, RIPK2 (Homo sapiens, UniProt O43353); experiment: SelectScreen kinase panel; type: binding
# T22 construct: purchased Invitrogen / ThermoFisher SelectScreen
# T22 sequence (O43353 whole entry): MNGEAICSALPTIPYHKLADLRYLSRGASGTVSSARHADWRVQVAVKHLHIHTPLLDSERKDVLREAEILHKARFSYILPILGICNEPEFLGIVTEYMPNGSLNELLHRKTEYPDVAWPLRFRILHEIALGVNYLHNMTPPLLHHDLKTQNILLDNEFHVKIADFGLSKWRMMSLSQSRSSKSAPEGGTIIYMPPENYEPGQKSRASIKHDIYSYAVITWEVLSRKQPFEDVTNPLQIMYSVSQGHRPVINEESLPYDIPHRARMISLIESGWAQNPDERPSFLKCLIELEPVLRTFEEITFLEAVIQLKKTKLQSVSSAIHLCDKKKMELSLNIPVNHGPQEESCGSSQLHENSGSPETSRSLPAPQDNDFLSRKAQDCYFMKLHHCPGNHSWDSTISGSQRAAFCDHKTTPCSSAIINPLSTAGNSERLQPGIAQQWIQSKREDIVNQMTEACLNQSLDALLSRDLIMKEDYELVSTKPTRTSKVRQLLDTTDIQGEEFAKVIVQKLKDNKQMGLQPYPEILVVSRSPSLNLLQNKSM
# Procedure: as §2, §3
# TTK = target: T23, TTK (Homo sapiens, UniProt P33981); experiment: SelectScreen kinase panel; type: binding
# T23 construct: purchased Invitrogen / ThermoFisher SelectScreen
# Procedure: as §2, §3
# MKNK2 = target: T24, MKNK2 (Homo sapiens, UniProt Q9HBH9); experiment: SelectScreen kinase panel; type: binding
# T24 construct: purchased Invitrogen / ThermoFisher SelectScreen
# T24 sequence (Q9HBH9 whole entry): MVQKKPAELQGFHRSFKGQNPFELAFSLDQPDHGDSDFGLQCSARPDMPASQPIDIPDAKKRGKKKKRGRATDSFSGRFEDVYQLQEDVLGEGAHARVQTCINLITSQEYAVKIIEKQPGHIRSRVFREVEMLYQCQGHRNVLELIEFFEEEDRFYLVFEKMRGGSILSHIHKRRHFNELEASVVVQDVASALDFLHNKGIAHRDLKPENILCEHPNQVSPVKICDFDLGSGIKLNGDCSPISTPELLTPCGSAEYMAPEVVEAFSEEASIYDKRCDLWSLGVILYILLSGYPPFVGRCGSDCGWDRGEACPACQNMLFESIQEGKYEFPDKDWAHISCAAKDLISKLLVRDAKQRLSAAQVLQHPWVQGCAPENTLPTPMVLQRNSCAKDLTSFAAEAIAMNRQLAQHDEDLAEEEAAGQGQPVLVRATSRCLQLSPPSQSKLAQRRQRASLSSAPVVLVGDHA
# Procedure: as §2, §3
compound,measurement,setting,value
COc1cc(C(N)=O)nc(-c2cccc(C#C[C@]3(O)CCN(C)C3=O)c2)c1 [NIK SMI1],effect on canonical signaling as measured by TNF alpha-induced nuclear relA levels,[1],no effect
same,IC50,"[1]; Homo sapiens, TNF induced",> 2000 nM
same,inhibition at 1 µM,IGF1R,8.5%
same,inhibition at 1 µM,MST2,28%
same,inhibition at 1 µM,CAMKK2,1.1%
same,inhibition at 1 µM,DMPK,1.6%
same,inhibition at 1 µM,WNK2,1.7%
same,inhibition at 1 µM,MKK6,13.2%
same,inhibition at 1 µM,DDR1,2.7%
same,inhibition at 1 µM,AVCR2B,0.8%
same,inhibition at 1 µM,NLK,4.2%
same,inhibition at 1 µM,MYLK,7.5%
same,inhibition at 1 µM,B -Raf,-0.3%
same,inhibition at 1 µM,CAMKK1,-11.6%
same,inhibition at 1 µM,STK16,1%
same,inhibition at 1 µM,DRAK1,3.4%
same,inhibition at 1 µM,MYLK3,45.3%
same,inhibition at 1 µM,WEE1,6.2%
same,inhibition at 1 µM,ZAK,-0.8%
same,inhibition at 1 µM,SLK,2.6%
same,inhibition at 1 µM,MEK3,11.4%
same,inhibition at 1 µM,TNK2,0.1%
same,inhibition at 1 µM,JNK3,4.6%
same,inhibition at 1 µM,RIPK2,-0.1%
same,inhibition at 1 µM,TTK,13.2%
same,inhibition at 1 µM,MKNK2,23.3%
